Laboratory results published in patent publication US20080045609A1, “METHODS AND THERAPEUTICS TO FACILITATE LIVER REPAIR” (priority 2006, published 2008).

Experiments:
[1] = test system: NASH; experiment: clinical trial in patients with moderately severe NASH; assay type: in vivo, human; conditions: subcutaneous delivery, monotherapy
Method: The dosage and delivery mechanism for relaxin H2 is subcutaneous delivery of the molecule based on the earlier reports for the scleroderma trial. […] The dosage of relaxin H2 in the present trial is the most efficacious level that was used in the earlier reported scleroderma trial, a subcutaneous relaxin infusion rate of 25 μg/kg/day, with the mode of delivery via continuous subcutaneous delivery (e.g., through implantation of an osmotic pump). The simultaneous dosage of follistatin will be 50 μg/kg/day through subcutaneous delivery.
A formulation comprised of rH2 relaxin and recombinant human follistatin 315 is used to improve prognosis and decrease on-going damage caused from on-going hepatic damage in patients diagnosed with moderately severe NASH. The measured end points are indicative of a decrease of reduction of area of damage in the liver and increased liver enzyme function. […]
rH2 relaxin and follistatin administration are studied in a small patient population of NASH and an improvement in liver enzyme levels and liver function is measured as a primary end point. A decrease in on-going damage as determined by imaging techniques is also measured. […] In addition, elements such as diet and exercise are carefully monitored in the trial populations as these may impact on the improvement of the underlying metabolic disorder and potentially skew the results.

[2] = test system: CCl4-exposed rats; conditions: cited from earlier work
[3] = test system: HSC; conditions: cited from earlier work
[4] = test system: liver; conditions: cited from earlier work
[5] = test system: tumor cell; conditions: in vitro or in vivo studies; cited from earlier work
[6] = test system: progressive pulmonary fibrosis; conditions: patients with idiopathic pulmonary fibrosis, scleroderma or sarcoidosis resistant to three months of high-dose glucocorticoids; cited from earlier work
[7] = test system: lung fibroblasts; conditions: in vitro; cited from earlier work
[8] = test system: gene for TGF-β1; conditions: bleomycin-induced model of lung fibrosis, exogenous interferon-γ; cited from earlier work
[9] = test system: rat model of hypertension; conditions: cited from earlier work
[10] = test system: hepatic stellate cells (HSCs); conditions: rat CCl4 model of liver damage; cited from earlier work
[11] = human, in vivo; cited from earlier work

follistatin
improvement versus vehicle (liver enzyme levels, liver function) [1]: significant improvement over those treated with vehicle | reduction in fibrosis ([2]; CCl4-exposed rats treated with the peptide): 32% | decrease of hepatocyte apoptosis ([2]; CCl4-exposed rats, during treatment, effect maximal at week 4): 87% | TGF-β-induced secretion of collagen [3]: inhibit TGF-β-induced secretion of collagen from HSC | liver weight ([4]; after hepatic resection): significantly increases liver weight | cell replication and liver size ([4]; following partial hepatectomy): actively promote cell replication and increase liver size | tumor cell growth [5]: did not accelerate tumor cell growth

interferon γ-1b
clinical efficacy in progressive pulmonary fibrosis [6]: effective

interferon-γ
proliferation of lung fibroblasts [7]: inhibits the proliferation of lung fibroblasts in a dose-dependent manner | synthesis of protein in fibroblasts [7]: reduces the synthesis of protein in fibroblasts | transcription of the gene for TGF-β1 [8]: down-regulated

relaxin
improvement versus vehicle (liver enzyme levels, liver function) [1]: significant improvement over those treated with vehicle | fibrosis associated with organ damage [9]: reversing cardiac and renal fibrosis | collagen deposition by hepatic stellate cells [10]: inhibit collagen deposition by hepatic stellate cells | adverse events [11]: few adverse events
